Laboratory results published in patent US11564913B2, “Compositions and methods for treating cancer” (Children's Hospital Medical Center, priority 2019, dated 2023).

Assays:
[1] = tested on: ST8814, MCF7, MDA-MB-231, and T47D cells; assay: Cellular GI50s (summary of cell proliferation); format: cell-based
Text: Applicants tested IODVA1's ability to inhibit the proliferation of cells harboring activated Ras and therefore its ability to recapitulate the compound obtained from the NCI. Applicants chose the NF1-associated malignant peripheral nerve sheath tumors (MPNST) cell line ST8814, which is characterized by active wild-type Ras (Basu et al., 1992; Mahller et al., 2006) and the triple negative breast cancer cell line MDA-MB-231 carrying the oncogenic KRAS^G13D mutation (Hollestelle et al., 2007). In addition, applicants used the non-transformed mammary epithelial cell line MCF10A (RAS^WT immortalized by a spontaneous t(3;9)(3p13;9p22) translocation that deletes the CDKN2A gene, also known as p16) and the non-invasive estrogen receptor (ER) and progesterone receptor (PR) positive RAS^WT breast cancer cell line MCF7 (wild-type p53) and T47D (mutant p53). Cells were grown in growth media containing IODVA1 at concentrations between 0.1 and 10 μM or vehicle control and cell number was counted using the trypan blue exclusion method. […] Appreciable decrease in proliferation of non-transformed MCF10A cells was not observed.
(§1) IODVA1 has two pyridine groups attached to a central imidazole group. […] To test this hypothesis, applicants evaluated the potential of IODVA1 to interfere with the ability of 369 recombinant wild-type kinases to hydrolyze ATP.

[2] = tested on: 369 recombinant wild-type kinases; assay: Kinome inhibitory activity (Reaction Biology HotSpot); format: biochemical
Text: (§2) FIG. 7: IODVA1 Kinome Inhibitory Activity.
as §1
(§3) The Reaction Biology (www.reactionbiology.com) HotSPot miniaturized radioisotope filter binding assay platform was used to measure the activity of 369 wild-type kinases in presence of a single IODVA1 dose (Anastassiadis et al., 2011). In brief, for each reaction, kinase and substrate were mixed in a buffer containing 20 mM HEPES (pH 7.5), 10 mM MgCl2, 1 mM EGTA, 0.02% Brij35, 0.02 mg/ml BSA, 0.1 mM Na3VO4, 2 mM DTT, and 1% DMSO. IODVA1 was then added to a final concentration of 0.5 μM to each reaction mixture. After 20 min incubation at room temperature, reaction was initiated by adding ATP (Sigma-Aldrich) and [γ-^32P]-ATP (PerkinElmer, specific activity of 10 Ci/L). Reactions were incubated for 2 h at room temperature and spotted onto P81 ion exchange cellulose chromatography paper (Whatman). Filter paper was washed in 0.75% phosphoric acid to remove excess ATP. The percent remaining kinase activity relative to a vehicle-containing (DMSO) kinase reaction was calculated for each kinase/IODVA1 pair. Each kinase inhibition assay was done in duplicates and averaged. Data were processed and analyzed in Excel.

[3] = target: T1, YSK4/MAP3K19 (Homo sapiens, UniProt Q56UN5); assay: as above; format: biochemical; details: 0.5 μM
T1 construct: purchased Reaction Biology
Text: as §2, §1, §3

[4] = tested on: MDA-MB-231 triple negative breast cancer xenografts; assay: MDA-MB-231 orthotopic xenograft mouse model; format: in vivo, mice
Text: FIG. 8: IODVA1 inhibits tumor growth of human breast and lung cancer xenografts. […] (B) Tumors were also stained for Ki67 as a proliferation marker (top panel). […] (C) Quantification of Ki67-positive and cleaved caspase 3-positive cells of tumors shown in (B). […] Animals began treatment when tumors became detectable at 10 days post-injection (*, p<0.05). […] IODVA1 treated tumors also had fewer proliferating cells compared to control vehicle treated animals, as determined by immunohistochemical staining for Ki67 (bottom) and increased intratumoral fibrosis. Representative images were taken at 100× magnification, scale bar is 200 μm. (F) Quantification of Ki67+ cells in control and IODVA1 treated tumors shown in (E).
To examine if the ability of IODVA1 to reduce oncogene-driven cell proliferation can be translated in vivo, applicants tested its efficacy on one breast cancer and one lung cancer xenograft mouse model. The breast cancer model utilizes the human triple negative breast cancer MDA-MB-231 cells. Cells were orthotopically injected into the right and left inguinal mammary glands of immunodeficient female mice. Tumor-bearing mice then received an intraperitoneal (IP) injection of 250 μL of […] IODVA1 every other day, for an average dose of 3.5 mg/kg. Dosage regimen was not optimized, and it is expected that better results are obtained if IODVA1 dosage is increased. […]
For xenograft studies, 1×10^6 MDA-MB-231 cells were suspended in PBS and injected into each inguinal mammary fat pad of nulliparous, 10-week old female athymic nude mice. Tumors were measured weekly with digital calipers and volume was calculated as [(π/6))×L×W^2] […] At necropsy, the mice were weighed and the tumors were excised, measured, weighed, fixed in 4% paraformaldehyde, and embedded in paraffin. Peripheral blood was collected by cardiac puncture and analyzed with a Hemavet (Drew Scientific, Miami Lakes, Fla., USA) for complete blood counts. […]

T1 sequence (Q56UN5 whole entry): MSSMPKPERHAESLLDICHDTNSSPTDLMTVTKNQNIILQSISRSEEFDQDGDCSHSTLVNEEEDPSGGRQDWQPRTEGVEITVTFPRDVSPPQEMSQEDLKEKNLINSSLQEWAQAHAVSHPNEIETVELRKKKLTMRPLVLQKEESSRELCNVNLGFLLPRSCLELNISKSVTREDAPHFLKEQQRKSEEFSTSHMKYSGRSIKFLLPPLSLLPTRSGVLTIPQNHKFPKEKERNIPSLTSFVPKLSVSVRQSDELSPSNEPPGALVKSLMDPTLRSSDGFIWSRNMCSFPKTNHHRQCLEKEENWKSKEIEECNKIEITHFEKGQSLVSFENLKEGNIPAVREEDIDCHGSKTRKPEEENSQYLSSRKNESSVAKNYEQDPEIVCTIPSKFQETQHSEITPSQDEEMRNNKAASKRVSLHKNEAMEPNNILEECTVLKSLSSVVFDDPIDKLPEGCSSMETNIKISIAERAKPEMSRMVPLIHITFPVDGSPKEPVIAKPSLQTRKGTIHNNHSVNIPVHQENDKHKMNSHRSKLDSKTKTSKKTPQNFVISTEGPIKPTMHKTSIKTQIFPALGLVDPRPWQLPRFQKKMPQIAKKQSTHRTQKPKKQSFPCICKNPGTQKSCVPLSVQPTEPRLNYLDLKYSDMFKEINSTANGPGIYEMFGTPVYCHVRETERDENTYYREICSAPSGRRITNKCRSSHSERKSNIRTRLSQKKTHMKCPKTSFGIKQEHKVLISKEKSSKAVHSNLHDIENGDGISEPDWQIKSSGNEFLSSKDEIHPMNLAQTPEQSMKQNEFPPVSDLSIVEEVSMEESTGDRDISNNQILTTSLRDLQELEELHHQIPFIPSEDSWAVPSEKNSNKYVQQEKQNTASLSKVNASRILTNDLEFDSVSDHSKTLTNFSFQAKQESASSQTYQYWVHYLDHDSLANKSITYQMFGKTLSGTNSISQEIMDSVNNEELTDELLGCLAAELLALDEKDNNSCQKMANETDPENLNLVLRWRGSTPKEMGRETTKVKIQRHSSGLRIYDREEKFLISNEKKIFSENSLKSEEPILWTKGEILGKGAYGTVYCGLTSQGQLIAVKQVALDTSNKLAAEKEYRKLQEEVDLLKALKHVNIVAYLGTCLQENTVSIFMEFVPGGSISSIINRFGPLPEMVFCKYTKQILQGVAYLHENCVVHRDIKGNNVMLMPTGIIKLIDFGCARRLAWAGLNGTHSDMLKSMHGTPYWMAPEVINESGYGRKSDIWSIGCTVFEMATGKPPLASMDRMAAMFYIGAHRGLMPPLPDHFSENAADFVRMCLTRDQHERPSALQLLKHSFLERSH

`OC1(c2ccccn2)N=C(Nc2nc3ccccc3[nH]2)N=C1c1ccccn1` (stereo not shown) [IODVA1, (Z)-2-((1H-benzo[d]imidazol-2-yl)imino)-4,5-di(pyridin-2-yl)-2,5-dihydro-1H-imidazol-5-ol] was tested, and the GI50 [1] was 0.5 to 1 µM, the “inhibitory activity against major wild-type kinases including ABL1 and SRC-like kinases” value [2] was “no inhibitory activity” and the “fraction of tested kinases on which ineffective” value ([2]; 0.5 μM, 364 out of 369) was 98.6%. The increase in activity [3] was 21%, the “decrease of tumor volume compared to vehicle-treated control mice” value ([4]; IP, average dose of 3.5 mg/kg, four weeks post treatment) was ≥ 50% and the “apoptosis, cleaved caspase-3 stained tumor sections” value ([4]; after four weeks treatment) was “significant increase”. The “cell proliferation, Ki-67 stained tumors” value ([4]; after four weeks treatment) was “did not reveal a statistical change”.
